Laboratory results as given in ChEMBL document CHEMBL6177998, “Rational Design of Dual Degraders by Incorporating Molecular Glue Structural Features into PROTAC Degraders” (J Med Chem, 2025).

Key:
Assay type in all cases: cell-based
[1] = tested on: Protein cereblon/Androgen receptor (Homo sapiens), P10275+Q96SW2 [UNDEFINED MUTATION]; test: PROTAC activity at CRBN/Androgen receptor splice variant 7 in human VCaP cells assessed as induction of AR-V7 degradation at 5 uM incubated for 24 hrs by Western blot analysis relative to control
Chain of Protein cereblon/Androgen receptor (Homo sapiens), P10275+Q96SW2 [UNDEFINED MUTATION] (P10275 whole entry, looked up, change not shown, canonical isoform): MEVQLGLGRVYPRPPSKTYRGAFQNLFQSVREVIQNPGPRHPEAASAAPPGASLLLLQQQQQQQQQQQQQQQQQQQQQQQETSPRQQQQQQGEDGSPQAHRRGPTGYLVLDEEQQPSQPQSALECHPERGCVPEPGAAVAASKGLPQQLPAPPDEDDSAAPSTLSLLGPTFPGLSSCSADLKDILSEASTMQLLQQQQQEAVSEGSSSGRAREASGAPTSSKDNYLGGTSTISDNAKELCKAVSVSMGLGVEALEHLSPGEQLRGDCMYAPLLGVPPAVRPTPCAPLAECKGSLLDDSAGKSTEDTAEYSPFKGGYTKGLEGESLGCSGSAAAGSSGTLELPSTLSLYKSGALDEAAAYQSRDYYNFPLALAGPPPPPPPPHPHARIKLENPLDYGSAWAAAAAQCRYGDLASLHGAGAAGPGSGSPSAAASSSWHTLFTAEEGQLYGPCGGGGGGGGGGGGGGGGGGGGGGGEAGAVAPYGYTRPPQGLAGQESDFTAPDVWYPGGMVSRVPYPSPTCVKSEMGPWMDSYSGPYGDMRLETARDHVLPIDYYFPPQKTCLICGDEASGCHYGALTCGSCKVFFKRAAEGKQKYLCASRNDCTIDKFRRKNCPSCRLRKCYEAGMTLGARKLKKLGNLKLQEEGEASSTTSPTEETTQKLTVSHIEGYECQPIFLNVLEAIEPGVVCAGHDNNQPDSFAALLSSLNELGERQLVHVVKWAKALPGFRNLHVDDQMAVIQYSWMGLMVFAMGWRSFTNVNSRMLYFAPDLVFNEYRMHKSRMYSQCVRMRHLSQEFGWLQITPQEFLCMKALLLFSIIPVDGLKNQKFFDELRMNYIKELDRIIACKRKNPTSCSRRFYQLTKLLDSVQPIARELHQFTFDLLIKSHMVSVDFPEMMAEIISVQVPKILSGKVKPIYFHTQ
Chain of Protein cereblon/Androgen receptor (Homo sapiens), P10275+Q96SW2 [UNDEFINED MUTATION] (Q96SW2 whole entry, looked up, change not shown, canonical isoform): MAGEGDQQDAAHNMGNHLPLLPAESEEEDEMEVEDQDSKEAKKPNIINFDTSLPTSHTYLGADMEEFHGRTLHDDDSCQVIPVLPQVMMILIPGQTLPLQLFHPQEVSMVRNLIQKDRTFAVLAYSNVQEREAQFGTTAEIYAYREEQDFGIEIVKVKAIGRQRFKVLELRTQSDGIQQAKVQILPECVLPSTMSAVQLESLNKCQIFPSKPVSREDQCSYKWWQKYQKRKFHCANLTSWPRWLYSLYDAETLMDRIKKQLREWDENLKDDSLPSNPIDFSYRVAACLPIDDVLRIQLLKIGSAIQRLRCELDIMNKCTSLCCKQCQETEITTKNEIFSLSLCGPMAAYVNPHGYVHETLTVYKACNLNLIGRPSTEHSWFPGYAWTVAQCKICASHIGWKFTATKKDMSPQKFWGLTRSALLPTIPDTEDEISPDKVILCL

[2] = tested on: Protein cereblon/Androgen receptor (Homo sapiens), P10275+Q96SW2 [UNDEFINED MUTATION]; test: PROTAC activity at CRBN/Androgen receptor splice variant 7 in human 22Rv1 cells assessed as induction of AR-V7 degradation at 1 uM incubated for 24 hrs by Western blot analysis relative to control
[3] = biological target: T1, Protein cereblon/Eukaryotic peptide chain release factor GTP-binding subunit ERF3A (Homo sapiens, UniProt Q96SW2+P15170); test: Molecular glue activity at CRBN/GSPT1 in human 22Rv1 cells assessed as induction of GSPT1 degradation at 1 uM incubated for 24 hrs by Western blot analysis relative to control
T1 sequence (P15170 whole entry, looked up, canonical isoform): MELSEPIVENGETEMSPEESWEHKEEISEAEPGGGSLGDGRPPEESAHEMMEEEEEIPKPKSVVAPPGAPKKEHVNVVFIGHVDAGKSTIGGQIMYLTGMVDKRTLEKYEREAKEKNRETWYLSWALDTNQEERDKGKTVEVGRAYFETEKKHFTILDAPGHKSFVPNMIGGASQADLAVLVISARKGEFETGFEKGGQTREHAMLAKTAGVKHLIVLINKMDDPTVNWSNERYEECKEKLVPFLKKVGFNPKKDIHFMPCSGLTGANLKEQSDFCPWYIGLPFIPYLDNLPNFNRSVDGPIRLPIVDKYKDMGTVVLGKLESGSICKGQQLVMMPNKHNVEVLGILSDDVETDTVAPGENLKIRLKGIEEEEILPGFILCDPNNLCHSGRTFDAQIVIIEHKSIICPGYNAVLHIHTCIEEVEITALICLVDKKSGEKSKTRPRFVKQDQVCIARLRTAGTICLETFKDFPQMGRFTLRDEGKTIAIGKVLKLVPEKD
T1 sequence (Q96SW2 whole entry, looked up, canonical isoform): as the sequence (Q96SW2 whole entry, looked up, change not shown, canonical isoform) above

[4] = tested on: Protein cereblon/Androgen receptor (Homo sapiens), P10275+Q96SW2 [UNDEFINED MUTATION]; test: PROTAC activity at CRBN/Androgen receptor splice variant 7 in human VCaP cells assessed as induction of AR-V7 degradation at 1 uM incubated for 24 hrs by Western blot analysis relative to control
[5] = biological target: T2, Protein cereblon/Androgen receptor (Homo sapiens, UniProt P10275+Q96SW2); test: PROTAC activity at CRBN/AR in human VCaP cells assessed as induction of AR degradation at 1 uM incubated for 24 hrs by Western blot analysis relative to control
T2 sequence (P10275 whole entry, looked up): as the sequence (P10275 whole entry, looked up, change not shown, canonical isoform) above
T2 sequence (Q96SW2 whole entry, looked up): as the sequence (Q96SW2 whole entry, looked up, change not shown, canonical isoform) above

[6] = biological target: T1, Protein cereblon/Eukaryotic peptide chain release factor GTP-binding subunit ERF3A; test: Molecular glue activity at CRBN/GSPT1 in human 22Rv1 cells assessed as induction of GSPT1 degradation at 5 uM incubated for 24 hrs by Western blot analysis relative to control
[7] = biological target: T2, Protein cereblon/Androgen receptor; test: PROTAC activity at CRBN/AR in human 22Rv1 cells assessed as induction of AR degradation at 5 uM incubated for 24 hrs by Western blot analysis relative to control
[8] = biological target: T2, Protein cereblon/Androgen receptor; test: PROTAC activity at CRBN/AR in human 22Rv1 cells assessed as induction of AR degradation at 1 uM incubated for 24 hrs by Western blot analysis relative to control
[9] = tested on: Protein cereblon/Androgen receptor (Homo sapiens), P10275+Q96SW2 [UNDEFINED MUTATION]; test: PROTAC activity at CRBN/Androgen receptor splice variant 7 in human 22Rv1 cells assessed as induction of AR-V7 degradation at 5 uM incubated for 24 hrs by Western blot analysis relative to control
[10] = biological target: T2, Protein cereblon/Androgen receptor; test: PROTAC activity at CRBN/AR in human VCaP cells assessed as induction of AR degradation at 5 uM incubated for 24 hrs by Western blot analysis relative to control

SMILES	Activity [1]	Activity [2]	Activity [3]	Activity [4]	Activity [5]	Activity [6]	Activity [7]	Activity [8]	Activity [9]	Activity [10]
CC(C)(c1ccc(OCC2CCN(C(=O)CCCCCCCNc3cccc4c3C(=O)N(C3CCC(=O)NC3=O)C4=O)CC2)cc1)c1ccc(OC[C@H](O)CCl)cc1 (stereo not given in full)	14.3%	12.5%	32.3%	8.4%	< 5%	45.8%	25%	7.8%	52.3%	< 5%
CC(C)(c1ccc(OCC2CCN(C(=O)CCCC#Cc3ccc4c(c3)C(=O)N(C3CCC(=O)NC3=O)C4=O)CC2)cc1)c1ccc(OC[C@H](O)CCl)cc1 (stereo not given in full)	5.2%	48.2%	28.5%	7.4%	8.4%	34%	< 5%	24.6%	18.1%	< 5%
CC(C)(c1ccc(OCC2CCN(C3CN(C(=O)CNc4ccc5c(c4)C(=O)N(C4CCC(=O)NC4=O)C5=O)C3)CC2)cc1)c1ccc(OC[C@H](O)CCl)cc1 (stereo not given in full)	< 5%	< 5%	37%	< 5%	< 5%	60.9%	< 5%	< 5%	< 5%	< 5%
CC(C)(c1ccc(OCC2CCN(C(=O)CCCCCNc3cccc4c3C(=O)N(C3CCC(=O)NC3=O)C4=O)CC2)cc1)c1ccc(OC[C@H](O)CCl)cc1 (stereo not given in full)	36.1%	28.4%	65.1%	21.6%	< 5%	68.9%	19.7%	11.7%	25.5%	11.7%
CC(C)(c1ccc(OCC2CCN(C3CN(C(=O)CCNc4ccc5c(c4)C(=O)N(C4CCC(=O)NC4=O)C5=O)C3)CC2)cc1)c1ccc(OC[C@H](O)CCl)cc1 (stereo not given in full)	11.9%	5%	14.4%	20%	32.7%	15.5%	< 5%	< 5%	< 5%	19.8%
CC(C)(c1ccc(OCC2CCN(C(=O)CCCCC#Cc3ccc4c(c3)C(=O)N(C3CCC(=O)NC3=O)C4=O)CC2)cc1)c1ccc(OC[C@H](O)CCl)cc1 (stereo not given in full)	26.4%	34.8%	25.5%	< 5%	< 5%	30.7%	< 5%	13.7%	14.6%	18.6%
CC(C)(c1ccc(OCC2CCN(C(=O)CCCCCCNc3ccc4c(c3)C(=O)N(C3CCC(=O)NC3=O)C4=O)CC2)cc1)c1ccc(OC[C@H](O)CCl)cc1 (stereo not given in full)	< 5%	8.6%	81%	< 5%	< 5%	79.8%	33.1%	14.4%	30.7%	14.2%
CC(C)(c1ccc(OCC2CCN(C(=O)CCCCCCCNc3ccc4c(c3)C(=O)N(C3CCC(=O)NC3=O)C4=O)CC2)cc1)c1ccc(OC[C@H](O)CCl)cc1 (stereo not given in full)	7%	< 5%	37.2%	< 5%	4.9%	42%	7.5%	< 5%	< 5%	10.2%
CC(C)(c1ccc(OCC2CCN(C(=O)CCCCNc3ccc4c(c3)C(=O)N(C3CCC(=O)NC3=O)C4=O)CC2)cc1)c1ccc(OC[C@H](O)CCl)cc1 (stereo not given in full)	8.2%	11.8%	86%	5.9%	8.5%	89.3%	21.6%	8.6%	9.3%	13.7%
CC(C)(c1ccc(OCC2CCN(C(=O)CCCCCOc3ccc4c(c3)C(=O)N(C3CCC(=O)NC3=O)C4=O)CC2)cc1)c1ccc(OC[C@H](O)CCl)cc1 (stereo not given in full)	34%	29.9%	86.1%	< 5%	5.9%	95.5%	43.6%	5.8%	67.4%	20%
CC(C)(c1ccc(OCC2CCN(C(=O)CCCCNc3cccc4c3C(=O)N(C3CCC(=O)NC3=O)C4=O)CC2)cc1)c1ccc(OC[C@H](O)CCl)cc1 (stereo not given in full)	< 5%	20.1%	39.6%	< 5%	< 5%	47.1%	22.3%	12.4%	27.1%	< 5%
CC(C)(c1ccc(OCC2CCN(C3CN(C(=O)CCCNc4ccc5c(c4)C(=O)N(C4CCC(=O)NC4=O)C5=O)C3)CC2)cc1)c1ccc(OC[C@H](O)CCl)cc1 (stereo not given in full)	24.2%	5%	57.5%	< 5%	6.8%	76.7%	10.2%	12.1%	< 5%	25.4%
CC(C)(c1ccc(OCC2CCN(C(=O)CCCCOc3ccc4c(c3)C(=O)N(C3CCC(=O)NC3=O)C4=O)CC2)cc1)c1ccc(OC[C@H](O)CCl)cc1 (stereo not given in full)	< 5%	33.3%	29.6%	< 5%	< 5%	44.4%	32.3%	< 5%	56%	< 5%
CC(C)(c1ccc(OCC2CCN(C3CN(C(=O)CCCCNc4ccc5c(c4)C(=O)N(C4CCC(=O)NC4=O)C5=O)C3)CC2)cc1)c1ccc(OC[C@H](O)CCl)cc1 (stereo not given in full)	6.4%	5%	33.8%	14.9%	17.7%	41.2%	< 5%	13.5%	< 5%	40.9%
CC(C)(c1ccc(OCC2CCN(C(=O)CCCCCCOc3ccc4c(c3)C(=O)N(C3CCC(=O)NC3=O)C4=O)CC2)cc1)c1ccc(OC[C@H](O)CCl)cc1 (stereo not given in full)	< 5%	34.4%	77.9%	< 5%	< 5%	92.7%	16.4%	20.1%	33.9%	8%
CC(C)(c1ccc(OCC2CCN(C(=O)CCCCCCNc3cccc4c3C(=O)N(C3CCC(=O)NC3=O)C4=O)CC2)cc1)c1ccc(OC[C@H](O)CCl)cc1 (stereo not given in full)	9.2%	< 5%	36.5%	< 5%	< 5%	39.8%	38%	10.1%	11%	< 5%
